In US11566260B2, “Potentiating agents for protecting plants from fungal infections” (UNIVERSITE D'ANGERS, priority 2012, dated 2023):

How the values were obtained:
Alternaria brassicicola [1] = test: Test B: potentiating effect with a plant defense molecule on growth of Alternaria brassicicola; type: cell-based; settings: Alternaria brassicicola
Experimental: Test B: • 1) Determining a non-fungicidal amount of said agent, preferably according to Test A; • 2) Determining a non-fungicidal amount of a plant defense molecule, preferably according to Test A; • 3) Measuring growth of fungal conidia in a medium comprising a combination of a non-fungicidal amount of the agent, as determined in step 1, and a non-fungicidal amount of the plant defense molecule, as determined in step 2. In one embodiment, the growth is measured as follows: Suspensions of fungal conidia (starting material: 10^5 conidia/mL) are cultured in liquid medium, such as, for example, 300 μL of PBD medium, on microplate wells at 25° C. with shaking at 175 rpm for 5 minutes every 10 minutes. Non-fungicidal concentrations of the tested agent and of the tested plant defense molecule are added on wells, and fungal growth is measured during at least 5 hours, preferably at least 10, 20, 30 hours. Methods for measuring fungal growth are well known from the skilled artisan. Examples of such methods include, but are not limited to, photometry, such as, for example, spectrophotometric methods; or nephelometry, such as, for example, laser nephelometry as described in Joubert et al (Biotechniques, 2010, 48:399-404). Growth inhibition is measured by comparing the Area Under Curves (AUC) of treated samples and of untreated controls.
The potentiating effect of chelerythrin is measured in a suspension of conidia treated with a plant defense molecule, camalexin, which is present at a non-fungicidal amount as determined hereinabove. Said non-fungicidal amount is consistent with the amount of camalexin produced by an infected plant organ.
Alternaria brassicicola growth was measured as described hereinabove.
A non-fungicidal amount of chelerythrin (as determined in Example 1a) and/or a non-fungicidal amount of camalexin (as determined in Example 1b) or 10 μL of DMSO are added per well, and growth curves were drawn (FIG. 3).
In the Table 5 below are shown compounds (column 1) having a potentiating effect of a plant defense molecule (column 2) for the inhibition of a pathogenic fungus (column 3). The type of the potentiating agent in this particular situation is given in column 4 (homologous or heterologous). Triads were identified according to Test B.

Alternaria brassicicola [2] = test: Test A: growth of Alternaria brassicicola conidia followed by nephelometry, to find the non-fungicidal amount; type: cell-based
Experimental: Suspensions of fungal conidia (starting material being for example 10^5 conidia/mL) are cultured in liquid medium, such as, for example, 300 μL of PBD medium, on microplate wells at 25° C. with shaking at 175 rpm for 5 minutes every 10 minutes. Increasing concentrations of the tested product are added on wells, and fungal growth is measured, during at least 5 hours, preferably at least 10, 20, 30 hours. Methods for measuring fungal growth are well known from the skilled artisan. Examples of such methods include, but are not limited to, photometry, such as, for example, spectrophotometric methods; or nephelometry, such as, for example, laser nephelometry as described in Joubert et al (Biotechniques, 2010, 48:399-404). Growth inhibition is measured by comparing the Area Under Curves (AUC) of treated samples and of untreated controls. Test A is carried out in Example 1.
Alternaria brassicicola strains were cultivated at 24° C. on potato dextrose (PD) medium (Cat. No. 213200; Becton Dickinson, USA).
For inoculum preparation, conidia were collected from 8-days-old solid cultures by adding PD broth followed by gentle scraping of the agar plates. They were counted in a Thoma's chamber and the conidial suspensions were diluted to the concentration of 10^5 conidia/mL.
Growth was automatically recorded for at least 30 hours at 25° C. using a nephelometric reader (NEPHELOstar Galaxy, BMG Labtech, Germany) equipped with a 635-nm laser as radiation source. During incubation, the 96-well plates were subjected to shaking at 175 rpm for 5 minutes every 10 minutes. Measurements were done every hour with a gain value of 90 and a percentage of the maximum value of 20%. Each well was measured for 0.1 second with a laser beam of 2.5 mm.
Chelerythrin (25 μM or 50 μM, test wells) or 10 μL of DMSO (chelerythrin solvent, control wells) were added on wells, and growth curves were drawn (FIG. 1).
Camalexin (10, 20, 40 or 60 μM, test wells) or 10 μL of DMSO (chelerythrin solvent, control wells) were added on wells, and growth curves were drawn (FIG. 2).

[3] = plant defense molecule Resveratrol
[4] = plant defense molecule Brassinin

| SMILES | Type of potentiating agent (compound having a potentiating effect of the plant defense molecule) (Alternaria brassicicola [1]; [3]) | Type of potentiating agent (compound having a potentiating effect of the plant defense molecule) (Alternaria brassicicola [1]; [4]) | Type of potentiating agent (compound having a potentiating effect of the plant defense molecule) (Alternaria brassicicola [1]; plant defense molecule Camalexin) | inhibition of Alternaria brassicicola growth (Alternaria brassicicola [2]; 10 μM camalexin) | inhibition of Alternaria brassicicola growth (Alternaria brassicicola [2]; 20 μM camalexin) |
| --- | --- | --- | --- | --- | --- |
| CCOc1cc2c(OCC)cc3c4cc(OC)c(OC)cc4cnc3c2cc1OC [Compound 3] | Heterologous |  |  |  |  |
| COc1cc2c[n+](C)c3c4cc(OC)c(OC)cc4c(OCc4ccccc4)cc3c2cc1OC [Compound 4] | Heterologous | Homologous |  |  |  |
| COc1cc2c(OC)cc3c4cc(OC)c(OC)cc4c(=O)n(C)c3c2cc1OC [Compound 5] | Heterologous | Homologous |  |  |  |
| c1c2c(cc3c1OCO3)-c1cc3ccc4c(c3c[n+]1CC2)OCO4 [Coptisin] |  | Homologous | Homologous |  |  |
| c1ccc2c(-c3nccs3)c[nH]c2c1 [camalexin, reference compound] |  |  |  | ≤ 20% | ≤ 20% |
